Values of other authors as cited in patent publication US5275819A, “Drug loaded pollen grains with an outer coating for pulsed delivery” (Amer Particle Technologies Inc., priority 1991, dated 1994).

Settings: compared with GNRH

Compound: CC(C)C[C@H](NC(=O)[C@@H](Cc1ccc2ccccc2c1)NC(=O)[C@H](Cc1ccc(O)cc1)NC(=O)[C@H](CO)NC(=O)[C@H](Cc1c[nH]c2ccccc12)NC(=O)[C@H](Cc1c[nH]cn1)NC(=O)[C@@H]1CCC(=O)N1)C(=O)N[C@@H](CCCNC(=N)N)C(=O)N1CCC[C@H]1C(=O)NCC(N)=O [Nafarelin]
- activity relative to GNRH: 200 times
